“And” between values parts separate entries of the source, which are not always exact repeats. Equal values may be shown once.
System: 454973-116-R2-J3-PDC spheroids, percent test/control viability
Assay: Anticancer human tumor 454973-116-R2-J3-PDC patient-derived pancreatic carcinoma cell line growth inhibition [CLK]
Conditions: spheroids with HUVEC and MSC; for viability, T/C: stronger effect = lower value
Procedure, shortened: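 Patient-derived tumor cells grown as complex spheroids with HUVEC endothelial cells and mesenchymal stem cells, treated with drug combinations. Concentrations descend in half-log steps from near clinical Cmax, or from 10 microM if Cmax unknown.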

[1] = curve of first compound, second compound 0.0316 µM
[2] = curve of first compound, second compound 0.1 µM
[3] = curve of first compound, second compound 0.316 µM
[4] = curve of first compound, second compound 1 µM
[5] = curve of first compound, second compound 3.16 µM
[6] = curve of first compound, second compound 10 µM
[7] = second compound 0.0316 µM, first compound 0.0316 µM
[8] = second compound 0.0316 µM, first compound 0.1 µM
[9] = second compound 0.0316 µM, first compound 0.316 µM
[10] = second compound 0.0316 µM, first compound 1 µM
[11] = second compound 0.0316 µM, first compound 3.16 µM
[12] = second compound 0.0316 µM, first compound 10 µM
[13] = second compound 0.1 µM, first compound 0.0316 µM
[14] = second compound 0.1 µM, first compound 0.1 µM
[15] = second compound 0.1 µM, first compound 0.316 µM
[16] = second compound 0.1 µM, first compound 1 µM
[17] = second compound 0.1 µM, first compound 3.16 µM
[18] = second compound 0.1 µM, first compound 10 µM
[19] = second compound 0.316 µM, first compound 0.0316 µM
[20] = second compound 0.316 µM, first compound 0.1 µM
[21] = second compound 0.316 µM, first compound 0.316 µM
[22] = second compound 0.316 µM, first compound 1 µM
[23] = second compound 0.316 µM, first compound 3.16 µM
[24] = second compound 0.316 µM, first compound 10 µM
[25] = second compound 1 µM, first compound 0.0316 µM
[26] = second compound 1 µM, first compound 0.1 µM
[27] = second compound 1 µM, first compound 0.316 µM
[28] = second compound 1 µM, first compound 1 µM
[29] = second compound 1 µM, first compound 3.16 µM
[30] = second compound 1 µM, first compound 10 µM
[31] = second compound 3.16 µM, first compound 0.0316 µM
[32] = second compound 3.16 µM, first compound 0.1 µM
[33] = second compound 3.16 µM, first compound 0.316 µM
[34] = second compound 3.16 µM, first compound 1 µM
[35] = second compound 3.16 µM, first compound 3.16 µM
[36] = second compound 3.16 µM, first compound 10 µM
[37] = second compound 10 µM, first compound 0.0316 µM
[38] = second compound 10 µM, first compound 0.1 µM
[39] = second compound 10 µM, first compound 0.316 µM
[40] = second compound 10 µM, first compound 1 µM
[41] = second compound 10 µM, first compound 3.16 µM
[42] = second compound 10 µM, first compound 10 µM
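Also: spheroids exposed to compounds for 7 days before readout.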

CC(C)CC(NC(=O)C(Cc1ccccc1)NC(=O)c1cnccn1)B(O)O (stereo not drawn) + CNC(=O)c1ccc(Nc2nc(OC3CCCC3)c3c(-c4ccc5nc(C)oc5c4)c[nH]c3n2)c(OC)c1
IC50 [1]: 2.55 nM | IC50 [2]: 2.9 nM | IC50 [3]: 1.08 nM | IC50 [4]: < 0.949 nM | IC50 [5]: < 0.949 nM | IC50 [6]: < 0.949 nM | viability, T/C (second compound 0.0316 µM, first compound 0.000949 µM): 104% | viability, T/C (second compound 0.0316 µM, first compound 0.003 µM): 41% | viability, T/C (second compound 0.0316 µM, first compound 0.00949 µM): 3.37% | viability, T/C (second compound 0.0316 µM, first compound 0.03 µM): 3.93% | viability, T/C (second compound 0.0316 µM, first compound 0.0949 µM): 1% | viability, T/C (second compound 0.0316 µM, first compound 0.3 µM): 1.85% | viability, T/C (second compound 0.1 µM, first compound 0.000949 µM): 108% | viability, T/C (second compound 0.1 µM, first compound 0.003 µM): 48.3% | viability, T/C (second compound 0.1 µM, first compound 0.00949 µM): 0.31% | viability, T/C (second compound 0.1 µM, first compound 0.03 µM): 2.58% | viability, T/C (second compound 0.1 µM, first compound 0.0949 µM): 2.61% | viability, T/C (second compound 0.1 µM, first compound 0.3 µM): 0.65% | viability, T/C (second compound 0.316 µM, first compound 0.000949 µM): 54.1% | viability, T/C (second compound 0.316 µM, first compound 0.003 µM): 18.6% | viability, T/C (second compound 0.316 µM, first compound 0.00949 µM): 1.42% | viability, T/C (second compound 0.316 µM, first compound 0.03 µM): 3.86% | viability, T/C (second compound 0.316 µM, first compound 0.0949 µM): 1.32% | viability, T/C (second compound 0.316 µM, first compound 0.3 µM): 0.81% | viability, T/C (second compound 1 µM, first compound 0.000949 µM): 41.6% | viability, T/C (second compound 1 µM, first compound 0.003 µM): 7.07% | viability, T/C (second compound 1 µM, first compound 0.00949 µM): 2.43% | viability, T/C (second compound 1 µM, first compound 0.03 µM): 2.96% | viability, T/C (second compound 1 µM, first compound 0.0949 µM): 3.35% | viability, T/C (second compound 1 µM, first compound 0.3 µM): 1.14% | viability, T/C (second compound 3.16 µM, first compound 0.000949 µM): 30.4% | viability, T/C (second compound 3.16 µM, first compound 0.003 µM): 3.95% | viability, T/C (second compound 3.16 µM, first compound 0.00949 µM): 1.54% | viability, T/C (second compound 3.16 µM, first compound 0.03 µM): 1.66% | viability, T/C (second compound 3.16 µM, first compound 0.0949 µM): 2.98% | viability, T/C (second compound 3.16 µM, first compound 0.3 µM): 0.23% | viability, T/C (second compound 10 µM, first compound 0.000949 µM): 28.3% | viability, T/C (second compound 10 µM, first compound 0.003 µM): 2.63% | viability, T/C (second compound 10 µM, first compound 0.00949 µM): 1.46% | viability, T/C (second compound 10 µM, first compound 0.03 µM): 3.63% | viability, T/C (second compound 10 µM, first compound 0.0949 µM): 1.96% | viability, T/C (second compound 10 µM, first compound 0.3 µM): 0.7%

O=C(c1cc(Cc2n[nH]c(=O)c3ccccc23)ccc1F)N1CCN(C(=O)C2CC2)CC1
viability, T/C (compound 0.0316 µM): 115% and 104% | viability, T/C (compound 0.1 µM): 95.9% and 101% | viability, T/C (compound 0.316 µM): 99.6% and 101% | viability, T/C (compound 1 µM): 101% and 99.2% | viability, T/C (compound 3.16 µM): 94.5% and 98.7% | viability, T/C (compound 10 µM): 71.1% and 77.5% | IC50 (curve of compound): > 10000 nM

COc1ccc([C@@H](O)c2cc(-c3ncnc4cc(N5CCOCC5)ccc34)c(F)cc2Cl)nn1 + CNC(=O)c1ccc(Nc2nc(OC3CCCC3)c3c(-c4ccc5nc(C)oc5c4)c[nH]c3n2)c(OC)c1
IC50 [1]: > 10000 nM | IC50 [2]: > 10000 nM | IC50 [3]: < 31.6 nM | IC50 [4]: < 31.6 nM | IC50 [5]: < 31.6 nM | IC50 [6]: < 31.6 nM | viability, T/C [7]: 109% | viability, T/C [8]: 95.5% | viability, T/C [9]: 105% | viability, T/C [10]: 93% | viability, T/C [11]: 80.3% | viability, T/C [12]: 51.1% | viability, T/C [13]: 98.9% | viability, T/C [14]: 110% | viability, T/C [15]: 94.5% | viability, T/C [16]: 97.2% | viability, T/C [17]: 72.9% | viability, T/C [18]: 54.7% | viability, T/C [19]: 42.2% | viability, T/C [20]: 41.4% | viability, T/C [21]: 49.1% | viability, T/C [22]: 43.2% | viability, T/C [23]: 45.5% | viability, T/C [24]: 31.9% | viability, T/C [25]: 27.8% | viability, T/C [26]: 28% | viability, T/C [27]: 29.1% | viability, T/C [28]: 24.9% | viability, T/C [29]: 25.9% | viability, T/C [30]: 21.4% | viability, T/C [31]: 26.8% | viability, T/C [32]: 30.3% | viability, T/C [33]: 26.3% | viability, T/C [34]: 25.9% | viability, T/C [35]: 23.6% | viability, T/C [36]: 18.4% | viability, T/C [37]: 28.2% | viability, T/C [38]: 26.5% | viability, T/C [39]: 23.1% | viability, T/C [40]: 24.4% | viability, T/C [41]: 27.2% | viability, T/C [42]: 17.7%

CC1COCCN1c1cc(C2(S(C)(=N)=O)CC2)nc(-c2ccnc3[nH]ccc23)n1 (stereo not drawn) + CNC(=O)c1ccc(Nc2nc(OC3CCCC3)c3c(-c4ccc5nc(C)oc5c4)c[nH]c3n2)c(OC)c1
IC50 [1]: 6280 nM | IC50 [2]: 7330 nM | IC50 [3]: < 31.6 nM | IC50 [4]: < 31.6 nM | IC50 [5]: < 31.6 nM | IC50 [6]: < 31.6 nM | viability, T/C [7]: 96.7% | viability, T/C [8]: 103% | viability, T/C [9]: 97.8% | viability, T/C [10]: 101% | viability, T/C [11]: 73.3% | viability, T/C [12]: 34.2% | viability, T/C [13]: 103% | viability, T/C [14]: 97.5% | viability, T/C [15]: 94.7% | viability, T/C [16]: 93.6% | viability, T/C [17]: 84.4% | viability, T/C [18]: 37.4% | viability, T/C [19]: 37% | viability, T/C [20]: 43.9% | viability, T/C [21]: 45.1% | viability, T/C [22]: 40.1% | viability, T/C [23]: 48.3% | viability, T/C [24]: 29.5% | viability, T/C [25]: 27.9% | viability, T/C [26]: 30.9% | viability, T/C [27]: 30.5% | viability, T/C [28]: 27.3% | viability, T/C [29]: 25.3% | viability, T/C [30]: 15.8% | viability, T/C [31]: 30.4% | viability, T/C [32]: 24.3% | viability, T/C [33]: 28.9% | viability, T/C [34]: 28.1% | viability, T/C [35]: 19.3% | viability, T/C [36]: 12.3% | viability, T/C [37]: 29.8% | viability, T/C [38]: 27.3% | viability, T/C [39]: 27.5% | viability, T/C [40]: 25.5% | viability, T/C [41]: 17.4% | viability, T/C [42]: 10.3%
